The text below walks through data of patent US9872870B2, “Multifunctional micellar nanoparticle-based drug and targeting agent system” (University of Notre Dame du Lac, priority 2011, dated 2018).

In data set [1] the test system is NCI-H929 cells. The data set can be described thus: DNA double strand breaks and apoptosis (western blot, immunocytochemistry, Annexin V). It counts as cell-based, human. The following applies: 250 nM Dox equivalents, 0-48 h. The protocol: It is well established that Dox induces DNA double strand breaks (DSBs) and apoptosis of cancer cells. An early specific cellular response to DSBs in mammalian cells is the phosphorylation of the histone protein H2AX (γ-H2AX), with respective foci formation. Therefore, we examined whether free Dox and NPDox/VLA-4-pep triggered similar signaling cascades of DNA damage and apoptosis in MM cells. […] Phosphorylation of DNA damage response protein H2AX at Ser139 was assayed by western blotting (FIG. 10a). Respective H2AX foci formation was assayed by immunocytochemistry (FIG. 10b). Apoptosis was assessed by flow cytometry following Annexin V-FITC staining (FIG. 10c), and by western blotting for PARP cleavage and caspase-8 and caspase-9 activation (FIG. 10d).
For immunocytochemistry analysis, cytospins of drug-treated cells were prepared on glass slides and fixed with 4% paraformaldehyde. Slides were blocked with 5% goat serum, incubated with y-H2AX antibody (Cell Signaling) overnight at 4° C., and then with AlexaFluor-488-labelled Fab2 (Molecular Probes). Coverslips were then mounted on the glass slides with VectaShield antifade/DAR (Vector Labs) and analyzed by Nikon Eclipse TS100 fluorescence microscope at 60×/0.5-1.25 oil, with a Nikon Infinity camera. For flow cytometric analysis, data represent means (±SD) of triplicate experiments. For western blotting, representative images are shown, and all antibodies were purchased from Cell Signaling.
For orientation: A western blot detects proteins with antibodies after separation by electrophoresis.

Data set [2] relates to NCI-H929 MM cells. The data set can be described thus: Cytotoxicity assay (Cell Counting Kit-8). It counts as cell-based, human. As to conditions: Dox equivalents. The procedure: To determine cytotoxicity in the presence of fibronectin, MM cells were plated on fibronectin coated plates (40 μg/ml), in adhesion buffer, for 1 h. […] BSA coated plates were used as controls.

In data set [3] the test system is NCI-H929 cells. Kind of data set: Cytotoxicity on fibronectin or BSA coated plates (CAM-DR). The procedure: Cytotoxicity assays: Cytotoxicity was determined using Cell Counting Kft-8 (Dojindo) as previously described. […] In all cases, cell viability was assessed by cell counting kit-8 (CCK-8), and data represent means (±SD) of triplicate cultures.
Cell viability was assessed by cell counting kit-8 (CCK-8), and data represent means (±SD) of triplicate cultures.

The nature of data set [4]: Systemic toxicity in tumor bearing mice (body weight, lethality, blood count, organ weights, histopathology). It counts as in vivo, CB.17 SCID mice. The protocol: (§1) To validate the therapeutic efficacy of multifunctional nanoparticles, CB.17 SCID mice (Harlan Laboratories) were irradiated with 150 rad, and were inoculated subcutaneously with 5×10^6 NCI-H929 cells. […] When the tumors were palpable, each mouse was injected with the drug, intravenously, on days 1, 3, and 5. […] Animals were monitored for body weight and tumor volume by caliper measurements. Tumor growth inhibition was detected by caliper measurements (left). Data shown are means (±SE) of n=6-8 per treatment group. Statistical comparisons of continuous variables were carried out by Student's two-tailed t-test and were considered significant when P<0.05.
(§2) For determination of systemic toxicity, 3 additional mice from each group were sacrificed on day 5 before any lethality was observed. Organ weights were measured. For complete blood count analysis, 200 μl of blood was drawn from each mouse via cardiac puncture, immediately mixed with 50 μl of Sequester Solution (Cambridge Diagnostic Products), and was analyzed with the HemaVet950 (Drew Scientific). Immunohistochemical staining of excised tumors for caspase-3 was performed as previously described.
To evaluate systemic toxicity, analysis of complete blood cell count, which is highly susceptible to chemotherapeutic agents, was performed. Three mice from each group were dissected on day 5, and complete blood count (white blood cell, red blood cell, and thrombocyte) was performed (FIG. 12e). Data represents means (±SE). *P<0.05, when compared to free Dox group.

The subject of data set [5] is NCI-H929 subcutaneous xenograft. Kind of data set: Subcutaneous xenograft model of MM, tumor growth. As to conditions: 6 mg/kg Dox equivalents iv on days 1, 3 and 5. Type of data set: in vivo, CB.17 SCID mice. The procedure:
as §1, §2
Three mice from each group were dissected on day 5 and tumors were stained for activated caspase-3. Representative images of tumor cross-sections that were captured using a Nikon Eclipse TS100 microscope at 20× magnification are shown.

As to `COc1cccc2c1C(=O)c1c(O)c3c(c(O)c1C2=O)C[C@@](O)(C(=O)CO)C[C@@H]3O[C@H]1C[C@H](N)[C@H](O)[C@H](C)O1` [free Dox, doxorubicin], in data set [1], the H2AX phosphorylation entry is “induced H2AX phosphorylation”; the “apoptosis (annexin V, PARP and caspase-8 activation)” value is on record as “induced apoptosis”; the caspase-9 activation entry is “No significant caspase-9 activation”. The IC50 – broadly, the concentration needed to halve the response being measured – in data set [2] (NCI-H929, 48 h) turned out to be 190 ± 40 nM. For the same compound, the IC50 in data set [2] (NCI-H929, 72 h) is ~130 nM. In data set [3], the “IC50, cytotoxicity in the presence of fibronectin” value is on record as 0.421-0.09 μM. Moreover, the “IC50 shift caused by adhesion to fibronectin (CAM-DR)” value in data set [3] (fibronectin vs BSA coated plates, 72 h) is 3 fold. Besides, the lethality entry in data set [4] (6 mg/kg Dox equivalents iv on days 1, 3 and 5) is recorded as “lethality of all mice on day 7”. Further, the “body weight loss” value in data set [4] (6 mg/kg iv on days 1, 3 and 5) is recorded as “significant loss of body weight”. For the same compound, in data set [4] (day 5), the “liver mass loss and histopathology” value was “moderate hepatocellular hypertrophy and degeneration”; the “spleen mass loss and histopathology” value was “severe fibrosis”. Also, the tumor growth inhibition result in data set [5] was “dramatic tumor growth inhibition”.
